# Tests used:
# PIK3CA (human) = PIK3CA (human) (UniProt P42336); experiment: Assessment of PIK3CA Kinase Activity
# PIK3CD (Human) = PIK3CD (Human) (UniProt O00329); experiment: Assessment of PIK3CD Kinase Activity
# PIK3CB (Human) = PIK3CB (Human) (UniProt P42338); experiment: Assessment of PIK3CB Kinase Activity
# PIK3CB (Human), sequence (P42338 whole entry, looked up): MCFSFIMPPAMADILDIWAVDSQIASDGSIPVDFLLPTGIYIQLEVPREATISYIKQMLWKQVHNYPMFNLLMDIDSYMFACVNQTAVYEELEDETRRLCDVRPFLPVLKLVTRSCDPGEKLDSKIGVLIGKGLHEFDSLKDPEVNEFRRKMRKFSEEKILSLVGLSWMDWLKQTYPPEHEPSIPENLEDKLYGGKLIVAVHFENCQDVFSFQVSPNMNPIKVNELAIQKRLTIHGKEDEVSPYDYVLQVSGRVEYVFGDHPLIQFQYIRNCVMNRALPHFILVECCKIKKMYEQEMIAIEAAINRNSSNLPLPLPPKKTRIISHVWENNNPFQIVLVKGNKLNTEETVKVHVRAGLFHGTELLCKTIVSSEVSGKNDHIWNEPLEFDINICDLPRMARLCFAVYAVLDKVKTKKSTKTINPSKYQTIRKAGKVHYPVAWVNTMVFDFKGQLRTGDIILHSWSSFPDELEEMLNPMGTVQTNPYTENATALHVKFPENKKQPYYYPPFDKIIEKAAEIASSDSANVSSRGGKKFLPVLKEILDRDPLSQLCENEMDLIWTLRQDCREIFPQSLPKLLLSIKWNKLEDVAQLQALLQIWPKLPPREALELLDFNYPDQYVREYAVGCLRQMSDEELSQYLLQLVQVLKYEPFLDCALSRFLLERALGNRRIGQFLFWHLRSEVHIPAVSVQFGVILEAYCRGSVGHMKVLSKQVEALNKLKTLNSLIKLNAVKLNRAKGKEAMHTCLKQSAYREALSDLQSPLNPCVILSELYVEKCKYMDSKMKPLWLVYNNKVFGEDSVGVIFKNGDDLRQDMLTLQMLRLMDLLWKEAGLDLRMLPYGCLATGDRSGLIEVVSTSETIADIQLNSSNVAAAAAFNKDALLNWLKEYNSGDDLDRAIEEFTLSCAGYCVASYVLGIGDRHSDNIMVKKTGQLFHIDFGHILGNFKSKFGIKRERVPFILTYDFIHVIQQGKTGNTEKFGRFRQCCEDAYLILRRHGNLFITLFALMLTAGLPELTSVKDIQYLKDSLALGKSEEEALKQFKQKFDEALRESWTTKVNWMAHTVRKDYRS
# PIK3CA (human), sequence (P42336 whole entry, looked up): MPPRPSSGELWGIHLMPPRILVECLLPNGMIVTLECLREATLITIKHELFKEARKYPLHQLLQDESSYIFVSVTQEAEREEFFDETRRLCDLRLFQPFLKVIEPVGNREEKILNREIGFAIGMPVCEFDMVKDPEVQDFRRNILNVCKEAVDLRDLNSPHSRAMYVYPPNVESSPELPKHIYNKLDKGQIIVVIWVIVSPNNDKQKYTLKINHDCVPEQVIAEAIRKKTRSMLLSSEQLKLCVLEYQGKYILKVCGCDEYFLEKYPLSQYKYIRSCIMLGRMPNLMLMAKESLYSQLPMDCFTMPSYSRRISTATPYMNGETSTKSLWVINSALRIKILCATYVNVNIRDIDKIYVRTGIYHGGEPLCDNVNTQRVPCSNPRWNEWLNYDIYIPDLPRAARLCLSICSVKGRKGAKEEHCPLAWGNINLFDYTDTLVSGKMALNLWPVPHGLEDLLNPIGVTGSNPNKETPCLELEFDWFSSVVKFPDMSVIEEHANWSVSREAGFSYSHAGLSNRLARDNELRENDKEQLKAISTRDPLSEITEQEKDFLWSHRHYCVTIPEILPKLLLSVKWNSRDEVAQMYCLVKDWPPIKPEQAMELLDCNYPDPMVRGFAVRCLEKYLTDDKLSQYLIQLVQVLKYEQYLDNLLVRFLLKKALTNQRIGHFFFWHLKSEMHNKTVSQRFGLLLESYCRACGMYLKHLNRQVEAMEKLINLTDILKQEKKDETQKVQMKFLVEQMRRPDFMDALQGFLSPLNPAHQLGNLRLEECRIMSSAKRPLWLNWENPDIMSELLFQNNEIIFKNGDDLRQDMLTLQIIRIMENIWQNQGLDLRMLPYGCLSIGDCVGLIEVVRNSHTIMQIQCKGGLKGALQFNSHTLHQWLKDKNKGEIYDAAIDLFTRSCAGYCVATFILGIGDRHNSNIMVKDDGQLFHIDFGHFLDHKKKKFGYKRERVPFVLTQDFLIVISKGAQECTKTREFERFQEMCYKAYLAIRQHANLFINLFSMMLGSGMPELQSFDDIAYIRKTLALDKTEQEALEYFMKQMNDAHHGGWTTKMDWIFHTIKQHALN
# PIK3CD (Human), sequence (O00329 whole entry, looked up): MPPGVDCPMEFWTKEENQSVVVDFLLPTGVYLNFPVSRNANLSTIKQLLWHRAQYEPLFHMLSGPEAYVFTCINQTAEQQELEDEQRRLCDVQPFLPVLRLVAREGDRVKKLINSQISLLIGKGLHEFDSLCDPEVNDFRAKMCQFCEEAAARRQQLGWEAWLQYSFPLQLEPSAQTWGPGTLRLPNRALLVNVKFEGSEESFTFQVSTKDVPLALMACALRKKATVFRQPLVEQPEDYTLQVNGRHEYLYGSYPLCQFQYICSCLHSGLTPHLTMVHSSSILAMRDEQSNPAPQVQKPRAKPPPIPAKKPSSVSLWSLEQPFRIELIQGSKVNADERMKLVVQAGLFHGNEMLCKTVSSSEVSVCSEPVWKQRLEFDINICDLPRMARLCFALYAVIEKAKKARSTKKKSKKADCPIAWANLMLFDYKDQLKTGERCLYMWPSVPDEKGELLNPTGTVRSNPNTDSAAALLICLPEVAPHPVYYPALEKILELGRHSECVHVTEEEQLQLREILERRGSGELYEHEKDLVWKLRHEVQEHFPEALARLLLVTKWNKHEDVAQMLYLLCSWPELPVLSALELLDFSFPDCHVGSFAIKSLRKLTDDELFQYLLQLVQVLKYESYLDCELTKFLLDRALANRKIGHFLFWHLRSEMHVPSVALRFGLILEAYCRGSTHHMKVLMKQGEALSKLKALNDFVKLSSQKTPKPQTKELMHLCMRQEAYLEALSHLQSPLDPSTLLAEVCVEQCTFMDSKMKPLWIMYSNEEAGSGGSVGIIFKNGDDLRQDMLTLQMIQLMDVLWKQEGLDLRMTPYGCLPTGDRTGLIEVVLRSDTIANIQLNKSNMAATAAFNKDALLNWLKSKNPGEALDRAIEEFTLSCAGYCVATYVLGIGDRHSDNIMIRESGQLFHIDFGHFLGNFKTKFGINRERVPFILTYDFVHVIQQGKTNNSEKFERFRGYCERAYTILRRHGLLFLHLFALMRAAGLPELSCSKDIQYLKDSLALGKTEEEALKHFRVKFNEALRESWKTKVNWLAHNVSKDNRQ
SMILES,IC50 (PIK3CA (human)),IC50 (PIK3CD (Human)),IC50 (PIK3CB (Human))
CN(C)CCCOc1cccc2c1nc(C(F)F)n2-c1nc(OC2CCN(S(C)(=O)=O)CC2)nc(N2CCOCC2)n1,100 to 1000 nM,100 to 1000 nM,
CN(C)CCS(=O)(=O)N1CCN(c2nc(N3CCOCC3)nc(-n3c(C(F)F)nc4ccccc43)n2)CC1,100 to 1000 nM,100 to 1000 nM,
COc1cccc2c1nc(C(F)F)n2-c1nc(-c2ccc(N(C)S(=O)(=O)CCN(C)C)cc2)nc(N2CCOCC2)n1,100 to 1000 nM,100 to 1000 nM,
COc1cccc2c1nc(C(F)F)n2-c1nc(N2CCOCC2)nc(N(CCCN(C)C)C2CCN(S(=O)(=O)CCl)CC2)n1,100 to 1000 nM,< 100 nM,

# The remaining lines, values ahead:
IC50 (PIK3CA (human)),IC50 (PIK3CD (Human)),IC50 (PIK3CB (Human)),SMILES
100 to 1000 nM,100 to 1000 nM,,COc1cccc2c1nc(C(F)F)n2-c1nc(N2CCOCC2)nc(N2CCC[C@H](N(CCCN(C)C)S(C)(=O)=O)C2)n1
100 to 1000 nM,,,COc1cccc2c1nc(C(F)F)n2-c1nc(-c2ccc(S(=O)(=O)N3CCN(C)CC3)cc2)nc(N2CCOCC2)n1
< 100 nM,< 100 nM,,COc1cccc2c1nc(C(F)F)n2-c1nc(OC2CCN(S(=O)(=O)CCN3CCOCC3)CC2)nc(N2CCOCC2)n1
< 100 nM,< 100 nM,100 to 1000 nM,COc1cc(N)cc2c1nc(C(F)F)n2-c1nc(N2CCOCC2)nc(N2CCN(S(=O)(=O)CCN(C)C)CC2)n1
< 100 nM,100 to 1000 nM,100 to 1000 nM,COc1cccc2c1nc(C(F)F)n2-c1nc(N2CCOCC2)c2cnn(C3CCN(S(=O)(=O)CCN(C)C)CC3)c2n1

# Source: the Kinase Knowledgebase extract (Sharma et al. 2016)
